Test system: HCV replicon cells
Experiment: Cell-based HCV replicon assay (replicon RNA by Taqman real time PCR)
Details: Hepatitis C virus, 72 h, HCV replicon 1b, cells harvested on day 3; read-out: 1b EC50

In order of falling EC50:
1. CCCC(CCC)COC(=O)[C@H](C)NP(=O)(O)OC[C@H]1O[C@@H](n2ccc(N)nc2=O)[C@](C)(N=[N+]=[N-])[C@@H]1O [Compound 318]  100 µM
2. C[C@@]1(N=[N+]=[N-])[C@@H]2OP(=O)(OC3CCC3)OC[C@H]2O[C@H]1n1ccc(=O)[nH]c1=O (stereo partly drawn) [Compound 83]  63 µM
3. CCOc1nc(N)nc2c1ncn2[C@@H]1O[C@@H]2COP(=O)(OC3CCCCC3)O[C@H]2[C@@]1(C)N=[N+]=[N-] (stereo partly drawn) [Compound 106]  49.9 µM

Same assay, conditions: Hepatitis C virus, 72 h, read-out: 1b EC50

In order of rising EC50:
1. CCOC(=O)[C@H](C)NP(=O)(OC[C@H]1O[C@@H](n2cnc3c(OCC)nc(N)nc32)[C@](C)(N=[N+]=[N-])[C@@H]1O)Oc1ccc(F)cc1 (single isomer, unassigned) [Compound 175]  0.4 µM
2. CCOC(=O)[C@H](C)NP(=O)(OC[C@H]1O[C@@H](n2cnc3c(OC)nc(N)nc32)[C@](C)(N=[N+]=[N-])C1O)Oc1ccccc1 (single isomer, unassigned) [Compound 251]  0.4 µM
3. CCOc1nc(N)nc2c1ncn2[C@@H]1O[C@H](COP(=O)(N[C@@H](C)C(=O)OC2CCCCC2)Oc2ccc(Cl)cc2)[C@@H](O)[C@@]1(C)N=[N+]=[N-] (single isomer, unassigned) [Compound 313]  0.66 µM
4. CCCOC(=O)[C@H](C)N[P@@](=O)(OC[C@H]1O[C@@H](n2ccc(=O)[nH]c2=O)[C@](C)(N=[N+]=[N-])[C@@H]1O)Oc1cccc2ccccc12 (single isomer, unassigned) [Compound 375]  0.8 µM
5. COC(=O)[C@H](C)NP(=O)(OC[C@H]1O[C@@H](n2cnc3c(OC)nc(N)nc32)[C@](C)(N=[N+]=[N-])C1O)Oc1cccc2ccccc12 (single isomer, unassigned) [Compound 254]  1 µM
6. CCOc1nc(N)nc2c1ncn2[C@@H]1O[C@H](COP(=O)(N[C@@H](C)C(=O)OC(C)C)Oc2ccccc2)[C@@H](O)[C@@]1(C)N=[N+]=[N-] (stereo partly drawn) [Compound 20]  1 µM
7. COc1nc(N)nc2c1ncn2[C@@H]1O[C@H](COP(=O)(N[C@@H](C)C(=O)OC(C)C)Oc2ccccc2)C(O)[C@@]1(C)N=[N+]=[N-] (single isomer, unassigned) [Compound 252]  1.1 µM
8. CCCCOC(=O)[C@H](C)NP(=O)(OC[C@H]1O[C@@H](n2cnc3c(OCC)nc(N)nc32)[C@](C)(N=[N+]=[N-])[C@@H]1O)Oc1cccc2ccccc12 (stereo partly drawn) [Compound 12]  1.3 µM
9. COC(=O)[C@H](C)NP(=O)(OC[C@H]1O[C@@H](n2cnc3c(NC4CC4)nc(N)nc32)[C@](C)(N=[N+]=[N-])[C@@H]1O)Oc1ccccc1Cl (stereo partly drawn) [Compound 385]  1.4 µM
10. CCOC(=O)[C@H](C)NP(=O)(OC[C@H]1O[C@@H](n2ccc(=O)[nH]c2=O)[C@](C)(N=[N+]=[N-])[C@@H]1O)Oc1ccc(F)cc1 (stereo partly drawn) [Compound 140]  1.4 µM
11. COc1nc(N)nc2c1ncn2[C@@H]1O[C@H](COP(=O)(N[C@@H](C)C(=O)OC2CCCCC2)Oc2ccc(F)cc2)[C@@H](O)[C@@]1(C)N=[N+]=[N-] (stereo partly drawn) [Compound 241]  1.9 µM
12. CCCCOC(=O)[C@H](C)NP(=O)(OC[C@H]1O[C@@H](n2ccc(=O)[nH]c2=O)[C@](C)(N=[N+]=[N-])[C@@H]1O)Oc1cccc2ccccc12 (single isomer, unassigned) [Compound 155]  2.2 µM
13. CCCOC(=O)[C@H](C)NP(=O)(OC[C@H]1O[C@@H](n2ccc(=O)[nH]c2=O)[C@](C)(N=[N+]=[N-])[C@@H]1O)Oc1ccccc1 (single isomer, unassigned) [Compound 147]  5.6 µM
14. CCOC(=O)c1cccc(OP(=O)(N[C@@H](C)C(=O)OC)OC[C@H]2O[C@@H](n3ccc(=O)[nH]c3=O)[C@](C)(N=[N+]=[N-])[C@@H]2O)c1 (single isomer, unassigned) [Compound 213]  7.9 µM
15. COC(=O)c1ccccc1OP(=O)(N[C@@H](C)C(=O)OC)OC[C@H]1O[C@@H](n2cnc3c(OC)nc(N)nc32)[C@](C)(N=[N+]=[N-])[C@@H]1O (stereo partly drawn) [Compound 223]  8.8 µM
16. COC(=O)[C@H](C)NP(=O)(OC[C@H]1O[C@@H](n2ccc(=O)[nH]c2=O)[C@](C)(N=[N+]=[N-])[C@@H]1O)Oc1ccccc1 (single isomer, unassigned) [Compound 158]  9 µM
17. COC(=O)[C@H](C)NP(=O)(OC[C@H]1O[C@@H](n2ccc(N)nc2=O)[C@](C)(N=[N+]=[N-])[C@@H]1O)Oc1ccccc1Cl (stereo partly drawn) [Compound 93]  12 µM
18. CC(C)OC(=O)[C@H](C)NP(=O)(OC[C@H]1O[C@@H](n2ccc(=O)[nH]c2=O)[C@](C)(N=[N+]=[N-])[C@@H]1O)Oc1ccccc1Cl (stereo partly drawn) [Compound 39]  49 µM

Same assay, conditions: read-out: 1b EC50

In order of falling EC50:
1. C[C@H](NP(=O)(OC[C@H]1O[C@@H](n2ccc(=O)[nH]c2=O)[C@](C)(N=[N+]=[N-])[C@@H]1O)Oc1ccccc1)C(=O)O[C@H](C)c1ccccc1 (single isomer, unassigned) [Compound 303]  46.9 µM
2. C[C@H](NP(=O)(OC[C@H]1O[C@@H](n2ccc(=O)[nH]c2=O)[C@](C)(N=[N+]=[N-])[C@@H]1O)Oc1ccccc1)C(=O)OCc1ccccc1 (single isomer, unassigned) [Compound 300]  29 µM
3. CCOC(=O)[C@H](C)NP(=O)(OC[C@H]1O[C@@H](n2ccc(N)nc2=O)[C@](C)(N=[N+]=[N-])[C@@H]1O)Oc1ccc(Cl)cc1 (single isomer, unassigned) [Compound 189]  22 µM
4. C[C@H](NP(=O)(OC[C@H]1O[C@@H](n2ccc(=O)[nH]c2=O)[C@](C)(N=[N+]=[N-])[C@@H]1O)Oc1ccccc1)C(=O)OCC(C)(C)C (single isomer, unassigned) [Compound 153]  19 µM
5. CCOC(=O)c1cccc(OP(=O)(N[C@@H](C)C(=O)OC)OC[C@H]2O[C@@H](n3ccc(=O)[nH]c3=O)[C@](C)(N=[N+]=[N-])[C@@H]2O)c1 (single isomer, unassigned) [Compound 214]  12 µM
6. CCOC(=O)[C@H](C)NP(=O)(OC[C@H]1O[C@@H](n2ccc(N)nc2=O)[C@](C)(N=[N+]=[N-])[C@@H]1O)Oc1ccc(Cl)cc1 (single isomer, unassigned) [Compound 190]  5.6 µM
7. COC(=O)[C@H](C)NP(=O)(OC[C@H]1O[C@@H](n2cnc3c(OC)nc(N)nc32)[C@](C)(N=[N+]=[N-])C1O)Oc1ccccc1 (single isomer, unassigned) [Compound 260]  3.6 µM
8. COC(=O)c1ccccc1OP(=O)(N[C@@H](C)C(=O)OC)OC[C@H]1O[C@@H](n2ccc(=O)[nH]c2=O)[C@](C)(N=[N+]=[N-])[C@@H]1O (single isomer, unassigned) [Compound 215]  3.1 µM
9. C[C@H](NP(=O)(OC[C@H]1O[C@@H](n2ccc(=O)[nH]c2=O)[C@](C)(N=[N+]=[N-])[C@@H]1O)Oc1ccccc1)C(=O)OCc1ccccc1 (single isomer, unassigned) [Compound 301]  2.7 µM
10. CCOc1nc(N)nc2c1ncn2[C@@H]1O[C@H](COP(=O)(N[C@@H](C)C(=O)OC2CCC2)Oc2ccccc2)[C@@H](O)[C@@]1(C)N=[N+]=[N-] (single isomer, unassigned) [Compound 362]  2.6 µM
11. COc1nc(N)nc2c1ncn2[C@@H]1O[C@H](COP(=O)(N[C@@H](C)C(=O)OC2CCCCC2)Oc2ccc(F)cc2)[C@@H](O)[C@@]1(C)N=[N+]=[N-] (single isomer, unassigned) [Compound 265]  2.5 µM
12. CCOc1nc(N)nc2c1ncn2[C@@H]1O[C@H](COP(=O)(N[C@@H](C)C(=O)OC)Oc2ccc(Cl)cc2)[C@@H](O)[C@@]1(C)N=[N+]=[N-] (single isomer, unassigned) [Compound 312]  2.2 µM
13. C[C@H](NP(=O)(OC[C@H]1O[C@@H](n2ccc(=O)[nH]c2=O)[C@](C)(N=[N+]=[N-])[C@@H]1O)Oc1ccc(F)cc1)C(=O)OC1CCCCC1 (single isomer, unassigned) [Compound 233]  2.1 µM
14. CCCCOC(=O)[C@H](C)NP(=O)(OC[C@H]1O[C@@H](n2ccc(=O)[nH]c2=O)[C@](C)(N=[N+]=[N-])[C@@H]1O)Oc1ccccc1 (single isomer, unassigned) [Compound 170]  1.5 µM
15. COc1nc(N)nc2c1ncn2[C@@H]1O[C@H](COP(=O)(N[C@@H](C)C(=O)OC2CCCCC2)Oc2ccccc2)[C@@H](O)[C@@]1(C)N=[N+]=[N-] (single isomer, unassigned) [Compound 275]  1.5 µM
16. COc1nc(N)nc2c1ncn2[C@@H]1O[C@H](COP(=O)(N[C@@H](C)C(=O)OCc2ccccc2)Oc2ccccc2)[C@@H](O)[C@@]1(C)N=[N+]=[N-] (single isomer, unassigned) [Compound 279]  1 µM
17. COC(=O)[C@H](C)NP(=O)(OC[C@H]1O[C@@H](n2cnc3c(OC)nc(N)nc32)[C@](C)(N=[N+]=[N-])C1O)Oc1ccccc1 (single isomer, unassigned) [Compound 261]  0.9 µM
18. CCOc1nc(N)nc2c1ncn2[C@@H]1O[C@H](COP(=O)(N[C@@H](C)C(=O)OC)Oc2ccc(Cl)cc2)[C@@H](O)[C@@]1(C)N=[N+]=[N-] (single isomer, unassigned) [Compound 311]  0.9 µM
19. CCOC(=O)[C@H](C)NP(=O)(OC[C@H]1O[C@@H](n2cnc3c(OCC)nc(N)nc32)[C@](C)(N=[N+]=[N-])[C@@H]1O)Oc1ccc(Cl)cc1 (single isomer, unassigned) [Compound 353]  0.9 µM
20. CCOc1nc(N)nc2c1ncn2[C@@H]1O[C@H](COP(=O)(N[C@@H](C)C(=O)OCC(C)C)Oc2ccccc2)[C@@H](O)[C@@]1(C)N=[N+]=[N-] (stereo partly drawn) [Compound 61]  0.8 µM
21. COC(=O)[C@H](C)NP(=O)(OC[C@H]1O[C@@H](n2cnc3c(OC)nc(N)nc32)[C@](C)(N=[N+]=[N-])[C@@H]1O)Oc1ccc(F)cc1 (single isomer, unassigned) [Compound 267]  0.7 µM
22. CC(C)OC(=O)[C@H](C)NP(=O)(OC[C@H]1O[C@@H](n2ccc(N)nc2=O)[C@](C)(N=[N+]=[N-])[C@@H]1O)Oc1ccccc1Cl (stereo partly drawn) [Compound 96]  0.6 µM
23. CCOC(=O)[C@H](C)NP(=O)(OC[C@H]1O[C@@H](n2ccc(=O)[nH]c2=O)[C@](C)(N=[N+]=[N-])[C@@H]1O)Oc1ccccc1 (single isomer, unassigned) [Compound 152]  0.5 µM
24. CCCCOC(=O)[C@H](C)NP(=O)(OC[C@H]1O[C@@H](n2cnc3c(OCC)nc(N)nc32)[C@](C)(N=[N+]=[N-])[C@@H]1O)Oc1cccc2ccccc12 (single isomer, unassigned) [Compound 172]  0.4 µM
